{"source": "paper PMC4528135", "about": "“Kinetic Investigations of the Role of Factor Inhibiting Hypoxia-inducible Factor (FIH) as an Oxygen Sensor” (The Journal of Biological Chemistry, 2015)", "key": {"FIH": {"target": "T1, FIH (Homo sapiens, UniProt Q9NWT6)", "T1 construct": "Full-length recombinant FIH, two- and three-consensus ankyrin repeats (2CA and 3CA) were produced as described; His6 (cleaved yes); made in house; host or cells: Escherichia coli BL21(DE3)", "T1 sequence (Q9NWT6 whole entry)": "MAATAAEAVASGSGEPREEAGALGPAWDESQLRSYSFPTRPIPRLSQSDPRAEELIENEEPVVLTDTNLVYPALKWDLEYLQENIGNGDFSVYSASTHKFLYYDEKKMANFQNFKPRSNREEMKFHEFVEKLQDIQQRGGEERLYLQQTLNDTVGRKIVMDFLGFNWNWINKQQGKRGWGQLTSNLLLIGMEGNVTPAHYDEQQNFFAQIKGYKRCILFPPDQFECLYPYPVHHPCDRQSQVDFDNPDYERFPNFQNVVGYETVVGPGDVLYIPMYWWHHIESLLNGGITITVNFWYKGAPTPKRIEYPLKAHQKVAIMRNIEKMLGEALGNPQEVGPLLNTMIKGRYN", "assay": "Time course of FIH-catalyzed peptide hydroxylation", "type": "biochemical", "conditions": "5 μM FIH, 500 μM peptide, atmospheric O2; for substrate hydroxylation (time course): 50 μM Fe(II), 500 μM 2OG, 1 mM L-ascorbate, 50 mM HEPES pH 7.5, 37 °C, MALDI-TOF-MS, triplicate assays", "description": "(§1) Enzymatic assays were conducted as described ([46], [47]). Unless otherwise stated, the assay mixture typically contained 5 μM FIH, 500 μM substrate, 500 μM 2OG, 1 mM L-ascorbate, and 50 μM Fe(NH4)2(SO4)2 or 4 μM PHD2, 100 μM substrate, 300 μM 2OG, 4 mM L-ascorbate, and 50 μM Fe(NH4)2(SO4)2. For HIF-1α CODD19-mer, the background levels of methionine oxidation resulting from assay conditions were subtracted based on non-enzymatic controls ([48]).\n(§2) FIGURE 3. PHD2- and FIH-catalyzed hydroxylation of HIF-1/2α peptide substrates. A, time course of HIF-1/2α CODD19-mer peptide hydroxylation; B, time course of HIF-1/2α NODD19-mer peptide hydroxylation. Conditions were as follows: 4 μM PHD2, 100 μM peptide, 50 μM Fe(II), 300 μM 2OG, 1 mM L-ascorbate in HEPES 50 mM (pH 7.5) were incubated at 37 °C at atmospheric O2. C, time course of HIF-1α CAD 19- and 35-mer peptide hydroxylation. D, time course of HIF-2α CAD 19- and 35-mer peptide hydroxylation. Conditions were as follows: 5 μM FIH, 500 μM peptide, 50 μM Fe(II), 500 μM 2OG, 1 mM L-ascorbate in HEPES 50 mM (pH 7.5) were incubated at 37 °C at atmospheric O2. The different hydroxylation levels were analyzed by MALDI-TOF-MS. Error bars, S.D. of triplicate assays."}, "[1]": {"target": "T2, PHD2 (catalytic domain, residues 181–426) (Homo sapiens, UniProt Q9GZT9)", "T2 construct": "The catalytic domain of PHD2 (residues 181–426) was purified as described; made in house", "T2 sequence (Q9GZT9 181-426)": "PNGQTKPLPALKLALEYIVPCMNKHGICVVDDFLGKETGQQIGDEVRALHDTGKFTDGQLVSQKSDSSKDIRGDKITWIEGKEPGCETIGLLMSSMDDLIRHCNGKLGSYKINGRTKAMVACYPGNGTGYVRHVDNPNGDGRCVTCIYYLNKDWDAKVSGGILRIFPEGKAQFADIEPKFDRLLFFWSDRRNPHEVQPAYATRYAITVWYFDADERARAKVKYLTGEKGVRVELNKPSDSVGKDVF", "assay": "Steady-state kinetics of PHD2-catalyzed HIF-α CODD/NODD hydroxylation (MALDI-TOF-MS)", "type": "biochemical", "conditions": "4 mM L-ascorbate, 50 mM HEPES pH 7.5, 37 °C; for kcat^app: PHD2, 4 μM PHD2, 50 μM Fe(II); for Km: 50 μM Fe(II), triplicate assays", "description": "as §1\nThe O2 dependence of FIH-catalyzed reactions was determined by conducting enzymatic assays in an “In vivo 500 Hypoxia Workstation” (Ruskinn) using buffers pre-equilibrated under different pO2 values for 24 h. The O2 dependence of PHD2-catalyzed reactions was determined by conducting enzymatic assays in sealed glass vials with variable N2/O2 contents ([42]). Reactions were stopped by spotting samples onto a matrix-assisted laser desorption/ionization-time of flight mass spectrometry (MALDI-TOF-MS) target plate and immediately mixing with α-cyano-4-hydroxycinnamic acid matrix. Hydroxylation levels were assessed by MALDI-TOF-MS as described ([46])."}, "PHD2": {"target": "T3, PHD2 (Homo sapiens, UniProt Q9GZT9)", "T3 construct": "The catalytic domain of PHD2 (residues 181–426) was purified as described; made in house", "T3 sequence (Q9GZT9 181-426)": "as above", "assay": "Time course of PHD2-catalyzed peptide hydroxylation", "type": "biochemical", "conditions": "4 μM PHD2, 100 μM peptide, 50 μM Fe(II), 300 μM 2OG, 1 mM L-ascorbate, 50 mM HEPES pH 7.5, 37 °C, atmospheric O2; MALDI-TOF-MS; triplicate assays", "description": "as §1, §2"}, "[2]": {"assay": "CD spectroscopy and thermal denaturation of 2CA and 3CA", "type": "physicochemical", "conditions": "for secondary structure in solution by circular dichroism: 0.2 mg/ml protein in 10 mM sodium phosphate buffer pH 8.0 (Fig. 7), thermal denaturation 10 to 90 °C", "description": "CD spectra were recorded using a Chirascan CD/fluorimeter (Applied Photophysics) spectrometer. Measurements were carried out at 20 °C in a 0.1 cm path length quartz cuvette, with protein concentration of 0.125 mg/ml in 5 mM sodium phosphate buffer (pH 8.0). Spectra were recorded in the wavelength range of 260–190 nm at 0.5-nm intervals, and each spectrum represents an average of three scans. Spectra were baseline-corrected by subtraction of the buffer spectrum. Data were expressed as the mean residue ellipticity ([θ], degrees·cm^2·dmol^−1). Thermal denaturation experiments were performed under the same conditions. The ellipticity at 220 nm (θ220) was monitored from 10 to 90 °C.\nFIGURE 7. CD spectroscopic comparison of 2CA and 3CA secondary structure. Thermal denaturation experiments of 2CA and 3CA are shown. Conditions were as follows. 0.2 mg/ml protein in 10 mM sodium phosphate buffer (pH 8.0) was studied at 222 nm for thermal denaturation experiments between 10 and 90 °C. A, melting curves of 2CA. B, spectra of 2CA between 260 and 190 nm at 10 °C, after heating to 90 °C and after cooling again to 10 °C. C, melting curves of 3CA. D, spectra of 3CA between 260 and 190 nm at 10 °C, after heating to 90 °C, where the α-helical structure is predominantly lost, and after cooling again to 10 °C, where the structure is largely regained."}, "[3]": {"conditions": "PHD2, 4 μM PHD2, peptide varied, 300 μM 2OG, read-out: Km^app(peptide)"}, "[4]": {"conditions": "PHD2 with the named substrate, 4 μM PHD2, 2OG varied, read-out: Km^app(2OG)"}}, "note": "Read-outs that look alike come from different tables or passages of the source."}
{"sequence": "DESGLPQLTSYDCEVNAPIQGSRNLLQGEELLRAL [HIF-1α CAD35-mer]", "values": [{"measurement": "substrate hydroxylation (time course)", "setting": "FIH", "result": "nearly complete substrate hydroxylation"}]}
{"sequence": "EELAQLAPTPGDAIISLDF [HIF-2α NODD, 19-mer fragment (398–416) of the HIF-2α N-terminal oxygen-dependent degradation domain, PHD2 substrate]", "values": [{"measurement": "kcat^app", "setting": "[1]", "result": "0.013 ± 0.001", "unit": "s⁻¹"}, {"measurement": "Km", "setting": "[1]; [3]", "result": "50 ± 8", "unit": "µM"}, {"measurement": "Km", "setting": "[1]; [4]", "result": "17 ± 5", "unit": "µM"}, {"measurement": "substrate hydroxylation after 15 min", "setting": "PHD2", "result": 20, "unit": "%"}]}
{"sequence": "ELDLETLAPYIPMDGEDFQ [HIF-2α CODD, 19-mer fragment (523–541) of the HIF-2α C-terminal oxygen-dependent degradation domain, PHD2 substrate]", "values": [{"measurement": "kcat^app", "setting": "[1]", "result": "0.069 ± 0.006", "unit": "s⁻¹"}, {"measurement": "Km", "setting": "[1]; [3]", "result": "34 ± 10", "unit": "µM"}, {"measurement": "Km", "setting": "[1]; [4]", "result": "9 ± 2", "unit": "µM"}, {"measurement": "substrate hydroxylation after 15 min", "setting": "PHD2", "result": 90, "unit": "%"}]}
{"sequence": "ESYLLPELTRYDCEVNVPVLGSSTLLQGGDLLRAL [HIF-2α CAD35-mer]", "values": [{"measurement": "substrate hydroxylation (time course)", "setting": "FIH", "result": "< 30", "unit": "%"}, {"measurement": "increase in activity on increasing peptide length (19-mer to 35-mer)", "setting": "FIH; standard conditions, 37 °C", "result": 10, "unit": "%"}]}
{"sequence": "GSHMGSDLGKKLLEAARAGQDDEVRILMANGADVAAKDKNGSTPLHLAARNGHLEVVKLLLEAGADVNAQDKFGKTAFDISIDNGNEDLAEILQ [3CA, recombinant three-consensus ankyrin repeat protein produced in Escherichia coli]", "values": [{"measurement": "secondary structure in solution by circular dichroism", "setting": "[2]", "result": "folded in solution"}]}
{"sequence": "SDKNGSTPLHLAARNGHLEVVKLLLEHGADVNAQDKWGKTAFDISIDNGNEDLAEILQ [2CA, recombinant two-consensus ankyrin repeat protein produced in Escherichia coli]", "values": [{"measurement": "secondary structure in solution by circular dichroism", "setting": "[2]", "result": "does not possess significant secondary structure"}, {"measurement": "temperature above which the protein is unfolded (CD)", "setting": "[2]; thermal denaturation between 10 and 90 °C, sodium phosphate buffer pH 8.0", "result": "> 10", "unit": "°C"}]}
